Test results published in patent publication US20060069132A1, “Azolecarboxamide herbicides” (priority 2004, published 2006).

How the values were obtained:
velvetleaf [1] = assay: Test A pre-/postemergence herbicide test; type: in vivo, Abutilon theophrasti
How it was run: (§1)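 Pre: seeded sandy loam, directed soil spray, compound in non-phytotoxic solvent + surfactant. Post: 1–2-leaf plants (2–10 cm), sprayed to runoff. Greenhouse ~10 d; visual injury vs untreated, 0–100 scale.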

large crabgrass [2] = assay: Test A pre-/postemergence herbicide test; type: in vivo, Digitaria sanguinalis
How it was run: as §1

Surinam grass = assay: Test B pre-/postemergence herbicide test; type: in vivo, Urochloa decumbens; details: for Surinam Grass plant response rating: postemergence, visual rating, scale 0 (no effect) to 100 (complete control)
How it was run: (§2)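 Formulation: non-phytotoxic solvent mix with surfactant. Timing: preemergence on seed and postemergence on 2–18 cm plants, applied concurrently. Readout after 13–15 d greenhouse: visual 0–100 control rating against controls.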

redroot pigweed = assay: Test A pre-/postemergence herbicide test; type: in vivo, Amaranthus retroflexus
How it was run: as §1

giant foxtail [3] = assay: Test A pre-/postemergence herbicide test; type: in vivo, Setaria faberi
How it was run: as §1

barnyardgrass [4] = assay: Test B pre-/postemergence herbicide test; type: in vivo, Echinochloa crus-galli; details: for Barnyardgrass plant response rating: postemergence, visual rating, scale 0 (no effect) to 100 (complete control)
How it was run: (§3)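 Test chemicals in a non-phytotoxic solvent mixture with surfactant were applied preemergence to seeded species and postemergence to plants 2-18 cm tall (1- to 4-leaf stage); rice and barnyardgrass were also tested in a flooded paddy at the 2-leaf stage. Visual rating versus controls after 13-15 days in greenhouse, scale 0 (no effect) to 100 (complete control).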

rice [5] = assay: Test B pre-/postemergence herbicide test; type: in vivo, Oryza sativa; details: preemergence
How it was run: as §2

giant foxtail [6] = assay: Test B pre-/postemergence herbicide test; type: in vivo, Setaria faberi; details: for Foxtail, Giant plant response rating: postemergence, visual rating, scale 0 (no effect) to 100 (complete control)
How it was run: as §2

barnyardgrass [7] = assay: Test B flooded paddy test; type: in vivo, Echinochloa crus-galli; details: 1000 g ai/ha, visual rating, scale 0 to 100 (0 no effect, 100 complete control), 13 to 15 days
How it was run: (§4)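 Paddy species grown to the 2-leaf stage under flooding; blackgrass sprayed postemergence at 2–18 cm (1- to 4-leaf stage). Plants kept in a greenhouse for 13 to 15 days, then visually rated against controls on 0 (no effect) to 100 (complete control).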

morningglory [8] = assay: Test A pre-/postemergence herbicide test; type: in vivo, Ipomoea spp.
How it was run: as §1

wheat = assay: Test B postemergence herbicide test; type: in vivo, Triticum aestivum; set-up: key to Wheat plant response rating: 0 = no effect, 100 = complete control; details: postemergence, visual rating, scale 0 (no effect) to 100 (complete control)
How it was run: (§5)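 Greenhouse test; postemergence application to plants at 1–4 leaves (2–18 cm); paddy species at 2 leaves; evaluated visually vs controls at 13–15 days; scale 0–100 (100 = complete control).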

velvetleaf [9] = assay: Test B pre-/postemergence herbicide test; type: in vivo, Abutilon theophrasti; details: for Velvetleaf plant response rating: postemergence, visual rating, scale 0 (no effect) to 100 (complete control)
How it was run: as §2

blackgrass = assay: Test B postemergence herbicide test; type: in vivo, Alopecurus myosuroides; details: postemergence, visual rating, scale 0 (no effect) to 100 (complete control)
How it was run: as §4

ducksalad = assay: Test B flooded paddy test; type: in vivo, Heteranthera limosa; details: 1000 g ai/ha, visual rating, scale 0 to 100 (0 no effect, 100 complete control), 13 to 15 days
How it was run: as §4

barnyardgrass [10] = assay: Test A pre-/postemergence herbicide test; type: in vivo, Echinochloa crus-galli
How it was run: as §1

morningglory [11] = assay: Test B pre-/postemergence herbicide test; type: in vivo, Ipomoea coccinea; details: for Morningglory plant response rating: postemergence, visual rating, scale 0 (no effect) to 100 (complete control)
How it was run: as §3

cocklebur = assay: Test B pre-/postemergence herbicide test; type: in vivo, Xanthium strumarium; details: for Cocklebur plant response rating: postemergence, visual rating, scale 0 (no effect) to 100 (complete control)
How it was run: as §3

corn = assay: Test B pre-/postemergence herbicide test; type: in vivo, Zea mays; details: for Corn plant response rating: postemergence, visual rating, scale 0 (no effect) to 100 (complete control)
How it was run: as §2

[12] = system: small flower umbrella sedge; assay: Test B flooded paddy test; type: in vivo, Cyperus difformis; details: 1000 g ai/ha, visual rating, scale 0 to 100 (0 no effect, 100 complete control), 13 to 15 days
How it was run: as §4

rice [13] = assay: Test B flooded paddy test; type: in vivo, Oryza sativa; details: 1000 g ai/ha, visual rating, scale 0 to 100 (0 no effect, 100 complete control), 13 to 15 days
How it was run: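 Scale 0–100: zero equals no visible effect, 100 complete control, judged by eye relative to controls. Timing: 13 to 15 days in greenhouse post-treatment. Growth stage at spraying: two leaves (paddy) or one to four leaves, 2–18 cm (postemergence).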

large crabgrass [14] = assay: Test B pre-/postemergence herbicide test; type: in vivo, Digitaria sanguinalis; details: for Crabgrass, Large plant response rating: postemergence, visual rating, scale 0 (no effect) to 100 (complete control)
How it was run: as §2

pigweed = assay: Test B pre-/postemergence herbicide test; type: in vivo, Amaranthus retroflexus; details: for Pigweed plant response rating: postemergence, visual rating, scale 0 (no effect) to 100 (complete control)
How it was run: as §2

wild oat = assay: Test B postemergence herbicide test; type: in vivo, Avena fatua; details: postemergence, visual rating, scale 0 (no effect) to 100 (complete control)
How it was run: as §5

lambsquarters = assay: Test B pre-/postemergence herbicide test; type: in vivo, Chenopodium album; details: for Lambsquarters plant response rating: postemergence, visual rating, scale 0 (no effect) to 100 (complete control)
How it was run: as §2

[15] = Postemergence, 500 g ai/ha, 0 to 100 scale, 0 no effect, 100 complete control
[16] = Postemergence, 2000 g ai/ha, 0 to 100 scale, 0 no effect, 100 complete control
[17] = Preemergence, 2000 g ai/ha, visual rating, 0 to 100 scale (0 no effect, 100 complete control)
[18] = preemergence, 500 g ai/ha, visual injury, 0 to 100 scale (0 no effect, 100 complete control)
[19] = 125 g ai/ha, 0 = no effect, 100 = complete control, preemergence
[20] = 500 g ai/ha, visual rating 0-100, 0 no effect, 100 complete control, preemergence

## COC(=O)c1cccc(NC(=O)c2sc(C(C)(C)C)nc2C)c1 [Compound 197]
Velvetleaf [1]; [15]
  Velvetleaf plant response rating: 5
Velvetleaf [1]; [16]
  Plant response rating, Velvetleaf: 5
Velvetleaf [1]; [17]
  Velvetleaf plant response rating: 10
Velvetleaf [1]; [18]
  Velvetleaf plant response rating: 0
Large crabgrass [2]; [15]
  Crabgrass, Large plant response rating: 5
Large crabgrass [2]; [16]
  Plant response rating, Crabgrass, Large: 10
Large crabgrass [2]; [17]
  Crabgrass, Large plant response rating: 0
Large crabgrass [2]; [18]
  Crabgrass, Large plant response rating: 0
Surinam grass; [19]
  Surinam Grass plant response rating (0 to 100 scale): 0
Surinam grass; [20]
  Plant response rating, Surinam Grass: 20
Surinam grass; 125 g ai/ha
  Surinam Grass plant response rating: 10
Surinam grass; 500 g ai/ha
  Surinam Grass plant response rating: 20
Redroot pigweed; [15]
  Pigweed plant response rating: 0
Redroot pigweed; [16]
  Plant response rating, Pigweed: 5
Redroot pigweed; [17]
  Pigweed plant response rating: 0
Redroot pigweed; [18]
  Pigweed plant response rating: 0
Giant foxtail [3]; [15]
  Foxtail, Giant plant response rating: 0
Giant foxtail [3]; [16]
  Plant response rating, Foxtail, Giant: 5
Giant foxtail [3]; [17]
  Foxtail, Giant plant response rating: 0
Giant foxtail [3]; [18]
  Foxtail, Giant plant response rating: 0
Barnyardgrass [4]; [19]
  Barnyardgrass plant response rating (0 to 100 scale): 0
Barnyardgrass [4]; [20]
  Plant response rating, Barnyardgrass: 10
Barnyardgrass [4]; 125 g ai/ha
  Barnyardgrass plant response rating: 0
Barnyardgrass [4]; 500 g ai/ha
  Barnyardgrass plant response rating: 10
Rice [5]; 125 g ai/ha, 0 = no effect, 100 = complete control
  Rice plant response rating (0 to 100 scale): 0
Rice [5]; 500 g ai/ha, visual rating 0-100, 0 no effect, 100 complete control
  Plant response rating, Rice: 0
Giant foxtail [6]; [19]
  Foxtail, Giant plant response rating (0 to 100 scale): 0
Giant foxtail [6]; [20]
  Plant response rating, Foxtail, Giant: 0
Giant foxtail [6]; 125 g ai/ha
  Foxtail, Giant plant response rating: 0
Giant foxtail [6]; 500 g ai/ha
  Foxtail, Giant plant response rating: 0
Barnyardgrass [7]
  Barnyardgrass plant response rating: 0
Morningglory [8]; [15]
  Morningglory plant response rating: 0
Morningglory [8]; [16]
  Plant response rating, Morningglory: 0
Morningglory [8]; [17]
  Morningglory plant response rating: 5
Morningglory [8]; [18]
  Morningglory plant response rating: 0
wheat; 125 g ai/ha
  Wheat plant response rating: 0
wheat; 500 g ai/ha
  Wheat plant response rating: 10
Velvetleaf [9]; [19]
  Velvetleaf plant response rating (0 to 100 scale): 0
Velvetleaf [9]; [20]
  Plant response rating, Velvetleaf: 0
Velvetleaf [9]; 125 g ai/ha
  Velvetleaf plant response rating: 0
Velvetleaf [9]; 500 g ai/ha
  Velvetleaf plant response rating: 20
blackgrass; 125 g ai/ha
  Blackgrass plant response rating: 0
blackgrass; 500 g ai/ha
  Blackgrass plant response rating: 0
ducksalad
  Ducksalad plant response rating: 0
Barnyardgrass [10]; [15]
  Barnyardgrass plant response rating: 10
Barnyardgrass [10]; [16]
  Plant response rating, Barnyardgrass: 0
Barnyardgrass [10]; [17]
  Barnyardgrass plant response rating: 0
Barnyardgrass [10]; [18]
  Barnyardgrass plant response rating: 0
Morningglory [11]; [19]
  Morningglory plant response rating (0 to 100 scale): 0
Morningglory [11]; [20]
  Plant response rating, Morningglory: 0
Morningglory [11]; 125 g ai/ha
  Morningglory plant response rating: 0
Morningglory [11]; 500 g ai/ha
  Morningglory plant response rating: 0
cocklebur; [19]
  Cocklebur plant response rating (0 to 100 scale): 0
cocklebur; [20]
  Plant response rating, Cocklebur: 0
cocklebur; 125 g ai/ha
  Cocklebur plant response rating: 0
cocklebur; 500 g ai/ha
  Cocklebur plant response rating: 10
corn; [19]
  Corn plant response rating (0 to 100 scale): 0
corn; [20]
  Plant response rating, Corn: 0
corn; 125 g ai/ha
  Corn plant response rating: 10
corn; 500 g ai/ha
  Corn plant response rating: 20
[12]
  Sedge, Umbrella plant response rating: 0
Rice [13]
  Rice plant response rating: 0
Large crabgrass [14]; [19]
  Crabgrass, Large plant response rating (0 to 100 scale): 0
Large crabgrass [14]; [20]
  Plant response rating, Crabgrass, Large: 0
Large crabgrass [14]; 125 g ai/ha
  Crabgrass, Large plant response rating: 0
Large crabgrass [14]; 500 g ai/ha
  Crabgrass, Large plant response rating: 0
pigweed; [19]
  Pigweed plant response rating (0 to 100 scale): 0
pigweed; [20]
  Plant response rating, Pigweed: 0
pigweed; 125 g ai/ha
  Pigweed plant response rating: 0
pigweed; 500 g ai/ha
  Pigweed plant response rating: 10
Wild oat; 125 g ai/ha
  Oat, Wild plant response rating: 10
Wild oat; 500 g ai/ha
  Oat, Wild plant response rating: 30
lambsquarters; [19]
  Lambsquarters plant response rating (0 to 100 scale): 0
lambsquarters; [20]
  Plant response rating, Lambsquarters: 0
lambsquarters; 125 g ai/ha
  Lambsquarters plant response rating: 0
lambsquarters; 500 g ai/ha
  Lambsquarters plant response rating: 0
